Data: the supplement of paper PMC11208160

Assay: recombinant barcode read abundance after kanamycin selection (control-corrected) (log10(CPM+1)); higher = more efficient recombination; sequences stand for … in AGTGCAGAGAAAATCGGCCAGTTTTCTCTGCCTGCAGTCCGCATGCCGT…AGATTTATGCAGCGGACTGCCTTTCTCCCAAAGTGATAAACCGGACAGTATCATGGACCGGTTTTCCCGGTAATCCGTATTTGCAAGGTTGGTTTCACT; site = the 11-nt target
Method in brief: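 IS621 bridge RNA target-binding loops were paired with targets in a pooled library tested in E. coli. After co-electroporation with a donor plasmid, cells were plated in two replicates on chloramphenicol/ampicillin LB agar (control) and on chloramphenicol/ampicillin/kanamycin carrying 0.1 mM IPTG. Barcodes at recombinant junctions were counted as counts per million, averaged and control-corrected to give recombination efficiency. Values are log10(CPM+1).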
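Further: IS621 recombinase and bridge RNA in Escherichia coli cells.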

Sequence	recombinant barcode read abundance (log10)
CGTTGCCCTTGGGTTCTAACCTGTTGCCT (site CATTGCCCTAG)	0.19
CGTTGCCCTTGGGTTCTAACCTGTTGCCT (site CCTTGCCCTAG)	0.0881
CGTTGCCCTTGGGTTCTAACCTGTTGCCT (site CGTTGCCCTAG)	0.166
CGTTGCCCTTGGGTTCTAACCTGTTGCCT (site CTTTGCCCTAG)	0.468
CGTTGGTCTTGGGTTCTAACCTGTTGCGA (site CGTTGGTCTTC)	0.759
CGTTGGTCTTGGGTTCTAACCTGTTGCGA (site TTGCATCCTCT)	0.0731
CGTTTCCCTTGGGTTCTAACCTGTTGCAG (site CGTTTCCCTAC)	0.152
CGTTTCCCTTGGGTTCTAACCTGTTGCAG (site CGTTTCCCTCT)	0.427
CGTTTCCCTTGGGTTCTAACCTGTTGCGT (site CGTTTCCCTAC)	1.04
CGTTTCCCTTGGGTTCTAACCTGTTGCGT (site CGTTTCCCTCT)	0.0161
CTAAAACCTTGGGTTCTAACCTGTTGCCT (site ATAAAACCTAG)	0.0167
CTAAAACCTTGGGTTCTAACCTGTTGCCT (site CTAAAACCTAG)	1
CTAAAACCTTGGGTTCTAACCTGTTGCCT (site GTAAAACCTAG)	0.0969
CTAAAACCTTGGGTTCTAACCTGTTGCCT (site TTAAAACCTAG)	0.218
CTAAAGTCTTGGGTTCTAACCTGTTGCCA (site CTAAAGTCTTG)	0.399
CTAAAGTCTTGGGTTCTAACCTGTTGCCA (site GTAAAGTCTTG)	0.0268
CTAAATACTTGGGTTCTAACCTGTTGCTA (site CTAAATACTAG)	0.835
CTAAATACTTGGGTTCTAACCTGTTGCTA (site CTAAATACTTA)	0.126
CTAACCACTTGGGTTCTAACCTGTTGCCA (site CTAACCACTTG)	0.329
CTAACCACTTGGGTTCTAACCTGTTGCCA (site CTAACTACTAG)	0.0393
CTAACCTCTTGGGTTCTAACCTGTTGCTC (site CTAACCTCTAA)	0.0754
CTAACCTCTTGGGTTCTAACCTGTTGCTC (site CTAACCTCTCA)	0.0593

Sequence	recombinant barcode read abundance (log10)
CTAACCTCTTGGGTTCTAACCTGTTGCTC (site CTAACCTCTGA)	1.66
CTAACCTCTTGGGTTCTAACCTGTTGCTC (site CTAACCTCTTA)	0.0437
CTAACCTCTTGGGTTCTAACCTGTTGCTG (site CTAACCTCTAA)	0.0311
CTAACCTCTTGGGTTCTAACCTGTTGCTG (site CTAACCTCTCA)	1.49
CTAACCTCTTGGGTTCTAACCTGTTGCTG (site CTAACCTCTGA)	0.0869
CTAACCTCTTGGGTTCTAACCTGTTGCTG (site CTAACCTCTTA)	0.0665
CTAACTACTTGGGTTCTAACCTGTTGCCT (site CTAACCACTTG)	0
CTAACTACTTGGGTTCTAACCTGTTGCCT (site CTAACTACTAG)	0.26
CTAACTACTTGGGTTCTAACCTGTTGCGT (site CTAACTACTAC)	0.181
CTAACTACTTGGGTTCTAACCTGTTGCGT (site GAGGTGCCTCA)	0.0974
CTAAGAACTTGGGTTCTAACCTGTTGCTT (site CTAAGAACTAA)	0.254
CTAAGAACTTGGGTTCTAACCTGTTGCTT (site CTAAGAACTAC)	0.509
CTAAGAACTTGGGTTCTAACCTGTTGCTT (site CTAAGAACTAG)	0.135
CTAAGAACTTGGGTTCTAACCTGTTGCTT (site CTAAGAACTAT)	0.086
CTAAGAGCTTGGGTTCTAACCTGTTGCAG (site CTAAGAGCTCG)	0.123
CTAAGAGCTTGGGTTCTAACCTGTTGCAG (site CTAAGAGCTCT)	1.98
CTAAGCGCTTGGGTTCTAACCTGTTGCCT (site AGTCAGACTGT)	0.463
CTAAGCGCTTGGGTTCTAACCTGTTGCCT (site CTAAGCGCTAG)	0.346
CTAAGCTCTTGGGTTCTAACCTGTTGCCT (site ATAAGCTCTAG)	0.129
CTAAGCTCTTGGGTTCTAACCTGTTGCCT (site CTAAGCTCTAG)	0.756
CTAAGCTCTTGGGTTCTAACCTGTTGCCT (site GTAAGCTCTAG)	0.0807
CTAAGCTCTTGGGTTCTAACCTGTTGCCT (site TTAAGCTCTAG)	0.201

Sequence	recombinant barcode read abundance (log10)
CTAAGCTCTTGGGTTCTAACCTGTTGCTC (site CTAAGCTCTAA)	0.537
CTAAGCTCTTGGGTTCTAACCTGTTGCTC (site CTAAGCTCTCA)	0.0828
CTAAGCTCTTGGGTTCTAACCTGTTGCTC (site CTAAGCTCTGA)	1.03
CTAAGCTCTTGGGTTCTAACCTGTTGCTC (site CTAAGCTCTTA)	0.119
CTAAGGTCTTGGGTTCTAACCTGTTGCCT (site CTAAGGTCTAA)	0.745
CTAAGGTCTTGGGTTCTAACCTGTTGCCT (site CTAAGGTCTAC)	0.122
CTAAGGTCTTGGGTTCTAACCTGTTGCCT (site CTAAGGTCTAG)	0.923
CTAAGGTCTTGGGTTCTAACCTGTTGCCT (site CTAAGGTCTAT)	0.222
CTAATACCTTGGGTTCTAACCTGTTGCGT (site CTAATACCTAC)	1.04
CTAATACCTTGGGTTCTAACCTGTTGCGT (site CTCATACCTAC)	0.0518
CTAATGTCTTGGGTTCTAACCTGTTGCCT (site CTAATGTCTAG)	1.65
CTAATGTCTTGGGTTCTAACCTGTTGCCT (site CTAATGTCTTG)	0.0145
CTAATTGCTTGGGTTCTAACCTGTTGCAA (site CTAATTGCTTT)	0.0868
CTAATTGCTTGGGTTCTAACCTGTTGCAA (site CTACTTGCTTT)	0.0139
CTAATTGCTTGGGTTCTAACCTGTTGCAA (site CTAGTTGCTTT)	0.344
CTAATTGCTTGGGTTCTAACCTGTTGCAA (site CTATTTGCTTT)	0.0237
CTACAATCTTGGGTTCTAACCTGTTGCAT (site CTACAATCTAA)	0.192
CTACAATCTTGGGTTCTAACCTGTTGCAT (site CTACAATCTAT)	1.51
CTACAATCTTGGGTTCTAACCTGTTGCTT (site CTACAATCTAA)	1.17
CTACAATCTTGGGTTCTAACCTGTTGCTT (site CTACAATCTAT)	0.816
CTACACCCTTGGGTTCTAACCTGTTGCTT (site CTACAACCTAA)	0.0455
CTACACCCTTGGGTTCTAACCTGTTGCTT (site CTACACCCTAA)	1.39

Sequence	recombinant barcode read abundance (log10)
CTACACCCTTGGGTTCTAACCTGTTGCTT (site CTACAGCCTAA)	0.296
CTACACCCTTGGGTTCTAACCTGTTGCTT (site CTACATCCTAA)	0.22
CTACAGGCTTGGGTTCTAACCTGTTGCAC (site CTACAGGCTGT)	1
CTACAGGCTTGGGTTCTAACCTGTTGCAC (site GAGTCTTCTTG)	0.165
CTACCACCTTGGGTTCTAACCTGTTGCCT (site CTACCAACTAG)	0.16
CTACCACCTTGGGTTCTAACCTGTTGCCT (site CTACCACCTAG)	1.8
CTACCACCTTGGGTTCTAACCTGTTGCCT (site CTACCAGCTAG)	0.0722
CTACCACCTTGGGTTCTAACCTGTTGCCT (site CTACCATCTAG)	0.214
CTACCATCTTGGGTTCTAACCTGTTGCCT (site CTACCAACTAG)	0.0518
CTACCATCTTGGGTTCTAACCTGTTGCCT (site CTACCACCTAG)	0.0894
CTACCATCTTGGGTTCTAACCTGTTGCCT (site CTACCAGCTAG)	0.278
CTACCATCTTGGGTTCTAACCTGTTGCCT (site CTACCATCTAG)	0.948
CTACCGTCTTGGGTTCTAACCTGTTGCGG (site CTACCATCTCG)	0.285
CTACCGTCTTGGGTTCTAACCTGTTGCGG (site CTACCGTCTCC)	1.97
CTACCTCCTTGGGTTCTAACCTGTTGCGT (site CTACCTCCTAC)	1.16
CTACCTCCTTGGGTTCTAACCTGTTGCGT (site CTACTTCCTAC)	0.37
CTACGAACTTGGGTTCTAACCTGTTGCTG (site CTACGAACTCA)	1.53
CTACGAACTTGGGTTCTAACCTGTTGCTG (site CTACGCACTCA)	0.167
CTACGAACTTGGGTTCTAACCTGTTGCTG (site CTACGGACTCA)	0.102
CTACGAACTTGGGTTCTAACCTGTTGCTG (site CTACGTACTCA)	0.142
